We go through eight molecules from PubChem BioAssay (NCI).

Molecules are shown by their SMILES.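 Each compound was tested at five concentrations against cells in 96-well plates for 48 hours. TGI: total growth inhibition.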 Bounds are passed on as bounds.

Among the test systems are T-47D breast; HOP-62 NSCLC; HCC-2998 colon; UACC-257 melanoma; HCT-116 colon; SF-539 CNS; SNB-75 CNS; NCI/ADR-RES ovarian; COLO 205 colon; A549 NSCLC; RPMI-8226 leukemia; SK-OV-3 ovarian; BT-549 breast; OVCAR-8 ovarian; LOX IMVI melanoma; EKVX NSCLC; UO-31 renal; HOP-92 NSCLC; CAKI-1 renal; A498 renal.
Common to all, as to experiment: growth of human tumour cells (NCI), 48 h

For the molecule `CCCc1nc2c(n1CC)C(=O)c1ccccc1C2=O`, the TGI was greater than 100 µM with T-47D breast; greater than 100 µM with HOP-62 NSCLC; greater than 100 µM in the assay with HCC-2998 colon; 45.6 µM in the assay on UACC-257 melanoma; greater than 100 µM in the assay with HCT-116 colon; greater than 100 µM with SF-539 CNS. Also, the TGI in the assay on SNB-75 CNS was greater than 100 µM; in the assay with NCI/ADR-RES ovarian, 78.7 µM; in the assay with COLO 205 colon, greater than 100 µM; with A549 NSCLC, greater than 100 µM; in the assay with RPMI-8226 leukemia it was greater than 100 µM; with SK-OV-3 ovarian, greater than 100 µM. Besides, in the assay with BT-549 breast, the TGI is greater than 100 µM.

For `Cc1ccc(C(=O)Oc2ccccc2)cc1N=NN(C)C`, the TGI with T-47D breast, with OVCAR-8 ovarian, in the assay with HOP-62 NSCLC, with LOX IMVI melanoma, in the assay with HCC-2998 colon and in the assay on UACC-257 melanoma was greater than 100 µM throughout. Further, the TGI in the assay on HCT-116 colon, in the assay with SF-539 CNS, in the assay with EKVX NSCLC, in the assay on NCI/ADR-RES ovarian, in the assay on COLO 205 colon and in the assay with UO-31 renal was greater than 100 µM each time. For the same molecule, the TGI with A549 NSCLC, with HOP-92 NSCLC, in the assay with RPMI-8226 leukemia, with CAKI-1 renal, in the assay on SK-OV-3 ovarian and in the assay with BT-549 breast was greater than 100 µM in each case.

In the case of `O=c1[nH][nH]c(=O)c2c1ccc1oc3ccccc3c12`, the TGI in the assay with T-47D breast, with OVCAR-8 ovarian, in the assay with HOP-62 NSCLC, with HCC-2998 colon, with UACC-257 melanoma and in the assay on HCT-116 colon was greater than 100 µM in each case. Further, the TGI with SF-539 CNS, with SNB-75 CNS, in the assay on EKVX NSCLC, in the assay on A498 renal, with COLO 205 colon and in the assay on UO-31 renal was greater than 100 µM throughout. Further, the TGI in the assay with A549 NSCLC, in the assay on HOP-92 NSCLC, in the assay on RPMI-8226 leukemia, in the assay with CAKI-1 renal, in the assay with SK-OV-3 ovarian and with BT-549 breast was greater than 100 µM in each case.

With `C[C@@H]1CC[C@H]2[C@H](C)C(OC3O[C@@H]4O[C@@]5(C)CC[C@H]6[C@H](C)CC[C@@H]([C@@H]3C)[C@@]46O5)O[C@@H]3O[C@@]4(C)CC[C@@H]1[C@]32O4` (stereo partly drawn), the TGI in the assay with T-47D breast, in the assay on OVCAR-8 ovarian, in the assay with HOP-62 NSCLC, in the assay with LOX IMVI melanoma, in the assay on HCC-2998 colon and in the assay on UACC-257 melanoma was greater than 100 µM each time. For the same molecule, the TGI with HCT-116 colon, in the assay with SF-539 CNS, in the assay on SNB-75 CNS, in the assay on EKVX NSCLC, in the assay with A498 renal and in the assay on COLO 205 colon was greater than 100 µM throughout. Also, the TGI in the assay on A549 NSCLC, in the assay with RPMI-8226 leukemia, in the assay with CAKI-1 renal, in the assay with SK-OV-3 ovarian and in the assay on BT-549 breast was greater than 100 µM throughout.

Take `C1CSCC2(COC2)CSCCSCC2(COC2)CS1`: the TGI with T-47D breast, in the assay on OVCAR-8 ovarian, in the assay on HOP-62 NSCLC, with LOX IMVI melanoma, in the assay with HCC-2998 colon and with UACC-257 melanoma was greater than 100 µM throughout. Besides, the TGI in the assay on HCT-116 colon, in the assay with SF-539 CNS, with SNB-75 CNS, with EKVX NSCLC, with NCI/ADR-RES ovarian and in the assay on COLO 205 colon was greater than 100 µM each time. For the same molecule, the TGI with UO-31 renal, in the assay with A549 NSCLC, in the assay with HOP-92 NSCLC, with SK-OV-3 ovarian and in the assay on BT-549 breast was greater than 100 µM in each case.

For `CC1=CCC(C(C)(C)NC(=O)c2ccccc2)C/C1=N/O` (stereo not drawn), the TGI in the assay on T-47D breast, in the assay with OVCAR-8 ovarian, with HOP-62 NSCLC, in the assay with LOX IMVI melanoma, with HCC-2998 colon and in the assay on UACC-257 melanoma was greater than 100 µM each time. Also, the TGI in the assay with HCT-116 colon, in the assay with SF-539 CNS, in the assay on SNB-75 CNS, with EKVX NSCLC, with COLO 205 colon and with UO-31 renal was greater than 100 µM throughout. Further, the TGI with A549 NSCLC, with HOP-92 NSCLC, in the assay on SK-OV-3 ovarian and in the assay on BT-549 breast was greater than 100 µM in each case.

`NC(=O)[N+](=CC(=S)Nc1ccccc1Cl)C(N)=O`: the TGI in the assay on T-47D breast, in the assay with OVCAR-8 ovarian, in the assay with HOP-62 NSCLC, with LOX IMVI melanoma, in the assay on HCC-2998 colon and in the assay with UACC-257 melanoma was greater than 100 µM throughout. In addition, the TGI with HCT-116 colon, in the assay with SF-539 CNS, in the assay with EKVX NSCLC, in the assay with NCI/ADR-RES ovarian, in the assay with COLO 205 colon and with UO-31 renal was greater than 100 µM throughout. For the same molecule, the TGI in the assay with A549 NSCLC, in the assay on HOP-92 NSCLC, in the assay on RPMI-8226 leukemia, in the assay with CAKI-1 renal, in the assay with SK-OV-3 ovarian and in the assay on BT-549 breast was greater than 100 µM in each case.

As for `CSc1nc(=O)cnn1C`, the TGI with T-47D breast, in the assay with OVCAR-8 ovarian, in the assay with HOP-62 NSCLC, with HCC-2998 colon, in the assay on UACC-257 melanoma and in the assay with HCT-116 colon was greater than 100 µM each time. Further, the TGI in the assay with SNB-75 CNS, with EKVX NSCLC, with NCI/ADR-RES ovarian, with COLO 205 colon, in the assay with UO-31 renal and in the assay on A549 NSCLC was greater than 100 µM throughout. For the same molecule, the TGI in the assay on RPMI-8226 leukemia, in the assay on CAKI-1 renal, in the assay with SK-OV-3 ovarian and with BT-549 breast was greater than 100 µM in each case.
